B1: PVN-CAR-F: native RCNMV conjugated via SMCC with fluorescein-labeled CAR targeting peptide (conjugate)
chain: LSITTPEEMIEKAKGETAYLPCKFTLSPEDQGPLDIEWLISPADNQKVDQVIILYSGDKIYDDYYPDLKGRVHFTSNDLKSGDASINVTNLQLSDIGTYQCKVKKAPGVANKKIHLVVLVKPSGARCYVDGSEEIGSDFKIKCEPKEGSLPLQYEWQKLSDSQKMPTSWLAEMTSSVISVKNASSEYSGTYSCTVRNRVGSDQCLLRLNVVPPSNKAGLIAGAIIGTLLALALIGLIIFCCRKKRREEKYEKEVHHDIREDVPPPKSRTSTARSYIGSNHSSLGSMSPSNMEGYSKTQYNQVPSEDFERTPQSPTLPPAKVAAPNLSRMGAIPVMIPAQSKDGSIV

Experiments:
HeLa cells [1] = experiment: MTT cell viability assay; format: cell-based; conditions: 7 uM DOX, 24 hours
Protocol: The effect of DOX-PVN-CD46 on cell viability was measured using an MTT assay (FIG. 10A). HeLa cells were exposed to a free DOX, DOX-PVN, and DOX-PVN-CD46 for 24 hours at DOX concentrations ranging from 0.01 uM to 12 uM prior assaying. […] On the other hand, the percentage of viable cell was approximately 70-80% when the same concentration of free DOX (7 uM) was delivered to the cells. […] The PVN has two desirable properties as a drug delivery platform. First, it sequesters drugs effectively in blood and other biofluids. Second, it delivers drugs inside cells triggered by divalent ion concentration and with a timed release that increases the efficacy of drugs that rely on interactions with DNA. FACS was used to determine the dose-response of DOX-PVN-CD46-F after a 2-hour exposure (FIG. 10B). Cell detachment is an early sign of apoptosis. One method to determining cell survival is to count the number of adherent cells. At a PVN concentration of 1 pM, the number of adherent cells is reduced by approximately 25% (FIG. 10B). The FACS experiments in the lower panel of FIG. 10B counts only the adherent cells. Thus, the reduction in viable (adherent) cells accounts for the low levels of PVN internalization measured by fluorescence intensity. The number of adherent cells decreases to 50% at a DOX-PVN-CD46-F concentration of 100 μM (data not shown).

HeLa cells [2] = experiment: PVN internalization by FACS / fluorescent microscopy; format: cell-based
Protocol: Flow cytometry measurements were carried out with the Becton Dickinson FACSCalibur® running Cellquest Pro. Flow cytometry is sometimes referred to as “FACS” herein. The positive population of cells is determined by gating the right-hand tail of the distribution of the negative control sample for each individual cell line at 1%. This setting can then used to determine the percentage of positive cells for each of the above markers for each individual cell line.
We have observed that PVNs with targeting peptides attached to the surface can be internalized into mammalian cells. […] Surface coverage can be determined in a fluorometer using a fluorescein standard curve to quantify the number of fluorophores in the sample and the UV-vis spectrum to quantify the concentration of RCNMV. Based on the measured fluorescence, we determined that the surface of the PVN was labeled with approximately 60 CD46-F peptides. The endocytosis of these formulations was detected using fluorescent microscopy and FACS. FACS quantifies PVN cellular uptake and cargo release in a two-channel fluorescence measurement on populations of hundreds of thousands of cells. […]

Molecule	percentage of viable cells (HeLa cells [1])	internalization in HeLa versus HepG2 cell lines (HeLa cells [2])
COc1cccc2c1C(=O)c1c(O)c3c(c(O)c1C2=O)C[C@@](O)(C(=O)CO)C[C@@H]3O[C@H]1C[C@H](N)[C@H](O)[C@H](C)O1 [DOX, doxorubicin]	70-80%	
B1		nearly the same level of internalization

— patent publication US9061076B2, “Viral nanoparticle cell-targeted delivery platform” (North Carolina State University, priority 2007, dated 2015)
